How the values were obtained:
[1] = test system: Human BMSCs; experiment: Fatty acid composition of BMSC after fatty acid supplementation of media (lipid extraction, gas chromatography); assay type: cell-based
Description: DHA and AA were diluted in DMEM with 1% horse serum. α-tocopherol was dissolved in ethanol (absolute) before supplementation. FA and α-tocopherol were stored at 4° C. in darkness to prevent their oxidation. Following forty-eight hours, the “additional differentiation medium” was changed to “differentiation medium”, containing DMEM supplemented with SPN, 2 mM L-glutamine, 200 μM butylated hydroxyanisole (BHA), 1 mM dibutyryl cyclic AMP (dbcAMP), 0.5 mM isobutylmethylxanthine (IBMX), 1 μM retinoic acid (RA) and N2 supplement with increasing amounts of DHA (Sigma) and AA (Sigma) (0, 30, 40, 50 and 60 μM). α-tocopherol was added at a concentration of 40 μM to all samples.
Following removal of medium from the culture dish, adherent cells were washed twice with cold PBS and dried by gentle aspiration with a Pasteur pipette. To each culture dish, 3 ml of a hexane:isopropanol (3:2 vol:vol) (HIP) solvent mixture containing 5 mg/dl butylated hydroxytoluene (BHT) was added. The dishes were gently shaken at room temperature for 10 minutes and the supernates were transferred to methylation tubes. The procedure was repeated with 1.5 ml HIP and the lipid extracts were added to the same tubes. For quantitative experiments which included simultaneous protein determination, lipid extraction was performed with HIP which contained a known amount of heneicosanoic acid (21:0) so as to obtain an internal standard. In addition, for these experiments, known volumes of concentrated cell suspensions were directly extracted with HIP and the protein content was determined from an equal volume of cell concentrates.
The lipid extracts were evaporated to dryness under a stream of nitrogen. […] The tubes were capped under N2, vortexed and heated at 100° C. for 1 hour. The resulting fatty acid methyl esters (FAME) were extracted into hexane, after acidification of the mixture with 3 drops of 3N HCl, and kept under N2 at −20° C. until analysis.
Injection was performed with a split/splitless injector kept at 220° C. at a split ratio of 1:30. Detector temperature was 250° C. The column temperature gradient was as follows: 70° C. for 2 min, increased at a rate of 20° C./min to 150° C. where it remained for 5 min, increased at 3° C./min to 210° C. and a final increase at 10° C./min to 230° C. at which it was kept for 3 min until the end of the run. FAME peaks were integrated and computed with the aid of the Varian Star Integrator computer package and were identified by comparison of their retention times with that of authentic standards. Injection of the samples was performed with the aid of a CTC-AS 200 autosampler.
The amount of individual fatty acids is presented as % weight of the total identified fatty acids and as μg FA/μg protein.

[2] = test system: hBMSc; experiment: HPLC analysis of dopamine, DOPA and DOPAC in supernatant of differentiating hBMSc; assay type: cell-based, human; details: medium supplemented with 56 mM KCl, 10 minutes incubation
Description: hBMSc were cultured as described in Table 6 below. [table] Samples were stabilized by adding 88 μl of 85% orthophosphoric acid and 4.4 mg of metabisulfite to ml sample. Dopamine was extracted by aluminium adsorption (Alumina, Bioanalytical Systems Inc.). Separation of injected samples (50 μl) was effected by isocratic elution on a HPLC-electron chemical detection (HPLC-ECD) system with a reverse-phase C18 column (125×4.6 mm dimension, Hichrom, Inc.) in a monochloroacetate buffer mobile phase. The flow rate was set at 1.2 ml per min, and the oxidative potential of the analytical cell was set at +650 mV. Results were validated by co-elution with dopamine standards under varying buffer conditions and detector settings.

[3] = test system: mBMSc; experiment: Differentiation of mouse BMSc into oligodendrocyte precursors (morphology, survival, A2B5 immunoassay); assay type: cell-based; details: for effect on cell-morphology (comparison of substances) / neuronal cell morphology: 24 hr incubation; for neuronal cell morphology: inducing substance alone
Description: Mice B5/EGFP (male) were sacrificed by cervical dislocation and were prepared with 70% alcohol solution. […] The cell pellet was resuspended in 1 ml growth medium and diluted to 10 ml. The cells were plated in polystyrene plastic tissue cultures 75 cm^2 flask (Corning Incorporated, Corning, N.Y.) in the “proliferation medium” (see Example 1 hereinabove) for one week. The cells were then transferred to polylysin-coated slide-chambers (3200 cells/well), supplemented “proliferation medium” and incubated for 24 hours at 37° C. The growth medium was then replaced with “oligodendrocytes differentiation media” composed of DMEM supplemented with 2 mM glutamine, SPN, one or more of the following substances: bFGF (10 ng/ml), EGF (10-20 ng/ml), Interlukin-1b (20-40 ng/ml), dbcAMP (1-2 mM), retinoic acid (0.5 or 1 μM), neurotrophin-3 (50 or 100 ng/ml), human platelet derived growth factor (PDGF-AA; 5-20 ng/ml), N2 supplement, triiodothyronien (T3; 40 ng/ml) and ciliary neurotrophic factor (20 ng/ml; CNTF).
The cultures were incubated at 37° C. for 1, 2 or 6 days (replacing growth media with fresh media every two days) then fixed in 4% PFA. Cells were blocked in 10% FCS solution then incubated with 5 ug/ml anti-A2B5 monoclonal antibody (1:200; R&D systems; 1:200) overnight at 4° C. Cells were then washed twice in PBS for 10 min and incubated with goat-anti-mouse Cy-3 second antibody (Jackson laboratories; 1:500) at room temperature for 20 min. The incidence of cells stained positive for A2B5 (an early marker of oligodendrocyte progenitors) was determined by using a fluorescent microscope equipped with Image ProPlus cell-counting program (Cybernetics).

[4] = +DHA (30 μM), Additional differentiation medium

CCCCC/C=C\C/C=C\C/C=C\C/C=C\CCCC(=O)O [AA, arachidonic acid]
optimal concentration in the additional differentiation medium to obtain the best cellular FA profile [1]: 40 µM

CC/C=C\C/C=C\C/C=C\C/C=C\C/C=C\C/C=C\CCC(=O)O [DHA, docosahexaenoic acid]
optimal concentration in the additional differentiation medium to obtain the best cellular FA profile [1]: 40 µM
20:4 n-6 of BMSC [1, 4]: 8.15 % weight
22:6 n-3 of BMSC [1, 4]: 16.70 % weight
Sum MUFA of BMSC [1, 4]: 24.24 % weight
Sum PUFA of BMSC [1, 4]: 33.08 % weight
Sum Saturated fatty acids of BMSC [1, 4]: 42.69 % weight
20:4 n-6 of BMSC ([1]; +DHA, Differentiation medium): 5.40 % weight
22:6 n-3 of BMSC ([1]; +DHA, Differentiation medium): 13.01 % weight
Sum MUFA of BMSC ([1]; +DHA, Differentiation medium): 12.32 % weight
Sum PUFA of BMSC ([1]; +DHA, Differentiation medium): 25.71 % weight
Sum Saturated fatty acids of BMSC ([1]; +DHA, Differentiation medium): 61.79 % weight

[Cl-].[K+] [KCl]
effect on dopamine secretion [2]: further enhanced dopamine secretion

CCCC(=O)Nc1ncnc2c1ncn2[C@@H]1O[C@@H]2COP(=O)(O)O[C@H]2[C@H]1OC(=O)CCC [dbcAMP, dibutyryl cyclic AMP]
effect on cell-morphology (comparison of substances) [3]: most pronounced effect on cell-morphology
neuronal cell morphology [3]: Neuronal cell morphology was observed

N[C@@H](Cc1cc(I)c(Oc2ccc(O)c(I)c2)c(I)c1)C(=O)O [thyroid factor 3, triiodothyronien]
effect on cell-morphology (comparison of substances) [3]: most pronounced effect on cell-morphology

Cc1c(C)c2c(c(C)c1O)CC[C@@](C)(CCC[C@H](C)CCC[C@H](C)CCCC(C)C)O2 [α-Tocopherol, α-tocopherol]
effect on PUFA composition of the neuron-like cells ([1]; 40 μM): did not affect the PUFA composition

IL-6: IL-6, named only in the result sentence (data not shown)
effect on cell-morphology (comparison of substances) [3]: most pronounced effect on cell-morphology

Interlukin-1b [IL-1b]
neuronal cell morphology [3]: Neuronal cell morphology was observed

B1: neurotrophin-3 (protein, UniProt P20783 139-257, looked up)
Neurotrophin-3: YAEHKSHRGEYSVCDSESLWVTDKSSAIDIRGHQVTVLGEIKTGNSPVKQYFYETRCKEARPVKNGCRGIDDKHWNSQCKTSQTYVRALTSENNKLVGWRWIRIDTSCVCALSRKIGRT
notes: neurotrophin-3, inducing substance in oligodendrocytes differentiation media
incidence of antibody-labeled A2B5 (comparison of substances) [3]: highest incidence
effect on cell-morphology (comparison of substances) [3]: most pronounced effect on cell-morphology
neuronal cell morphology [3]: Neuronal cell morphology was observed

Reference: patent publication US20130236964A1, “METHODS, NUCLEIC ACID CONSTRUCTS AND CELLS FOR TREATING NEURODEGENERATIVE DISORDERS” (RAMOT AT TEL-AVIV UNIVERSITY LTD., priority 2002, published 2013)
